Experiments:
[1] = Antiproliferative activity against human 786-O cells assessed as ATP level after 72 hrs by CellTiter-Glo assay; type: functional, cell-based; conditions: 786-0, 72 h
[2] = system: NCI-H226; test: Antiproliferative activity against human NCI-H226 cells assessed as ATP level after 72 hrs by CellTiter-Glo assay; type: functional, cell-based; conditions: NCI-H226, 72 h

Work on C[C@@H](O)[C@@]12O[C@]13c1cc(O)c4c(c1N[C@H]2C#C/C=C\C#C[C@H]3O)C(=O)c1ccc(NCCN)cc1C4=O yielded an EC50 [1] of 1280 pM and an EC50 [2] of 986 pM.

Work on C[C@@H](O)[C@@]12O[C@]13c1cc(O)c4c(c1N[C@H]2C#C/C=C\C#C[C@H]3O)C(=O)c1ccc(NC(=O)c2ccc(N)cc2)cc1C4=O yielded an EC50 [1] of 58 pM and an EC50 [2] of 873 pM.
